Measured values taken from US20230086702A1, “SUBSTITUTED 2-AMINO-PYRAZOLYL-[1,2,4]TRIAZOLO[1,5A]PYRIDINE DERIVATIVES AND USE THEREOF” (The Johns Hopkins University, priority 2019, published 2023).

How the values were obtained:
[1] = target: T1, DLK (Homo sapiens, UniProt Q12852); assay: DLK biochemical assay (TR-FRET, MKK7 phosphorylation)
T1 construct: 10 nM DLK, catalytic domain, Carna Biosiences; purchased Carna Biosciences ('Carna Biosiences' [sic])
T1 sequence (Q12852 125-366 limits assumed): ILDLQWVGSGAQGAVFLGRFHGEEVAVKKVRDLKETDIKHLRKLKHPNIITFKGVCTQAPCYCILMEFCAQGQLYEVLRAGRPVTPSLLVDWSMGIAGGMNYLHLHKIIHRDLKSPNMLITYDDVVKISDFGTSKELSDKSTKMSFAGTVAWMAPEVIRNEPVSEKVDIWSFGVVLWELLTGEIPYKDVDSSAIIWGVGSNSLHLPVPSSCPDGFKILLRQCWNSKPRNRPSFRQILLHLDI
How it was run: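 DLK catalytic domain (10 nM) phosphorylates His-MKK7 (15 nM) at 60 μM ATP for 90 min at RT in pH 7.5 Hepes buffer (final concentrations). Phospho-T275/S277 is detected by TR-FRET (Eu anti-phospho donor, XL665 anti-His acceptor) after 16 h at 37° C (1536 format) or 4° C (384 format).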

[2] = target: T2, LZK (Homo sapiens, UniProt O43283); assay: LZK biochemical assay (TR-FRET, MKK7 phosphorylation)
T2 construct: 10 nM LZK, catalytic domain, Carna Biosiences in assay buffer; purchased Carna Biosciences ('Carna Biosiences' [sic])
T2 sequence (O43283 168-409 limits assumed): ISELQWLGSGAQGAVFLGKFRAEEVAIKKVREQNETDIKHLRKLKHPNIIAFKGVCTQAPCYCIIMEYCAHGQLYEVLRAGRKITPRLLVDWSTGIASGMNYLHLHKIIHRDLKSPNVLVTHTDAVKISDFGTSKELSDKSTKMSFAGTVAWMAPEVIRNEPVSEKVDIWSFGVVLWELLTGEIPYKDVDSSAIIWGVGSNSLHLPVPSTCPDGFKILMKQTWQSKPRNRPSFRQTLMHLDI
How it was run: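 LZK catalytic domain (10 nM) phosphorylates His-MKK7 (15 nM) with 15 µM ATP, all final, for 90 min at RT in HEPES buffer pH 7.5 with MgCl2. Phospho-T275/S277 detected by TR-FRET (Eu anti-phospho donor, XL665 anti-His acceptor) after 16 h at 32 °C in EDTA stop buffer. Inhibition lowers the 665/Eu ratio.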

Row | Structure (SMILES) | IC50 [1] [nM] | IC50 [2] [nM]
1 | Nc1nc2c(-c3ccc(=O)n(C(F)F)c3)cc(-c3cnn(C(c4ccc(C(F)(F)F)nc4)C4CCOCC4)c3)cn2n1 (single isomer, unassigned) [II-154, 5-[2-Amino-6-(1-{tetrahydro-2H-pyran-4-yl[6-(trifluoromethyl)pyridin-3-yl]methyl}-1H-pyrazol-4-yl)[1,2,4]triazolo[1,5-a]pyridin-8-yl]-1-(difluoromethyl)pyridin-2(1H)-one] | 6.2 | 15
2 | Nc1nc2c(-c3ccc(=O)n(CC(F)(F)F)c3)cc(-c3cnn(C(c4ccc(C(F)(F)F)nc4)C4CCOCC4)c3)cn2n1 (single isomer, unassigned) [II-161, 5-[2-Amino-6-(1-{tetrahydro-2H-pyran-4-yl[6-(trifluoromethyl)pyridin-3-yl]methyl}-1H-pyrazol-4-yl)[1,2,4]triazolo[1,5-a]pyridin-8-yl]-1-(2,2,2-trifluoroethyl)pyridin-2(1H)-one] | 8.5 | 12
3 | CCC(c1ccc(OC(F)(F)F)nc1)n1cc(-c2cc(-c3ccc(=O)n(CC(F)(F)F)c3)c3nc(N)nn3c2)cn1 (single isomer, unassigned) [II-164, 5-[2-Amino-6-(1-{1-[6-(trifluoromethoxy)pyridin-3-yl]propyl}-1H-pyrazol-4-yl)[1,2,4]triazolo[1,5-a]pyridin-8-yl]-1-(2,2,2-trifluoroethyl)pyridin-2(1H)-one] | 3.5 | 17
4 | CCC(c1ccc(OC(F)(F)F)nc1)n1cc(-c2cc(-c3ccc(=O)n(CC(F)(F)F)c3)c3nc(N)nn3c2)cn1 (single isomer, unassigned) [II-165, 5-[2-Amino-6-(1-{1-[6-(trifluoromethoxy)pyridin-3-yl]propyl}-1H-pyrazol-4-yl)[1,2,4]triazolo[1,5-a]pyridin-8-yl]-1-(2,2,2-trifluoroethyl)pyridin-2(1H)-one] | 26 | 57
5 | Nc1nc2c(-c3cn(CC(F)(F)F)c(=O)cn3)cc(-c3cnn(C(c4ccc(C(F)(F)F)nc4)C4CCOCC4)c3)cn2n1 (single isomer, unassigned) [II-167, 5-[2-Amino-6-(1-{tetrahydro-2H-pyran-4-yl[6-(trifluoromethyl)pyridin-3-yl]methyl}-1H-pyrazol-4-yl)[1,2,4]triazolo[1,5-a]pyridin-8-yl]-1-(2,2,2-trifluoroethyl)pyrazin-2(1H)-one] | 1.3 | 9.9

Further lines, results first:

Row | IC50 [1] [nM] | IC50 [2] [nM] | Structure (SMILES)
6 | 1 | 3.1 | Nc1nc2c(-c3ccc(=O)n(C(F)F)c3)cc(-c3cnn(C(c4ccc(C(F)(F)F)nc4)C4CCOCC4)c3)cn2n1 (single isomer, unassigned) [II-155, 5-[2-Amino-6-(1-{tetrahydro-2H-pyran-4-yl[6-(trifluoromethyl)pyridin-3-yl]methyl}-1H-pyrazol-4-yl)[1,2,4]triazolo[1,5-a]pyridin-8-yl]-1-(difluoromethyl)pyridin-2(1H)-one]
7 | 5.9 | 12 | Nc1nc2c(-c3ccc(=O)n(CC(F)F)c3)cc(-c3cnn(C(c4ccc(C(F)(F)F)nc4)C4CCOCC4)c3)cn2n1 (single isomer, unassigned) [II-157, 5-[2-Amino-6-(1-{tetrahydro-2H-pyran-4-yl[6-(trifluoromethyl)pyridin-3-yl]methyl}-1H-pyrazol-4-yl)[1,2,4]triazolo[1,5-a]pyridin-8-yl]-1-(2,2-difluoroethyl)pyridin-2(1H)-one]
8 | 0.4 | 1.2 | Nc1nc2c(-c3ccc(=O)n(CC(F)F)c3)cc(-c3cnn(C(c4ccc(C(F)(F)F)nc4)C4CCOCC4)c3)cn2n1 (single isomer, unassigned) [II-158, 5-[2-Amino-6-(1-{tetrahydro-2H-pyran-4-yl[6-(trifluoromethyl)pyridin-3-yl]methyl}-1H-pyrazol-4-yl)[1,2,4]triazolo[1,5-a]pyridin-8-yl]-1-(2,2-difluoroethyl)pyridin-2(1H)-one]
